In patent US7030081B2 (S.I.S.S.A.- Scuola Internazionale Superiore di Studi …, priority 2000, dated 2006):
pEC50: −log10 of the molar value. Values joined by “and” are separate entries in the source; they are usually repeats but may differ in a detail not shown here. Equal entries are not always repeated. “Also recorded” adds a separate entry of the source. No end group written: not given here.

Experiments:
[1] = target: T1, muscle-type nicotinic receptors (Mus musculus, UniProt P02716+P04756+P09690); assay: Patch-clamp recording of nicotinic currents in cultured muscle cells (myotubes, I28); type: cell-based
T1 construct: nicotinic currents recorded from cultured muscle cells (myotubes, I28); endogenous in cells; host or cells: I28 myotubes
Method: A set of experiments was carried out using […] which represent myotubes and therefore contain muscle-type nicotinic receptors. For this purpose the cells were prepared according to method by Irintchev et al. (1997).
(§1) Dishes containing cultured cells (used from 0 to 3 days after their preparation) were placed on an inverted Nikon DIAPHOT™ microscope and continuously superfused (5–10 ml/min) with control saline containing (mM): NaCl 135, KCl 5, MgCl2 1, CaCl2 2, glucose 15, HEPES 10 (pH 7.4 with addition of […]; 285 mOsm osmolarity). The patch pipettes, obtained from glass capillary tubes (1.5 mm o.d.) had 5–6 MΩ resistance when filled with intracellular solution containing: (mM) CsCl 120; HEPES 20; MgCl2 1; Mg2ATP3 3, BAPTA 10 (240 mOsm). The pH of the intracellular solution was adjusted to 7.2 with CsOH. Unless otherwise specified, all recordings were carried out at −70 mV membrane potential. After obtaining whole-cell configuration (Hamill et al. 1981), each cell was stabilized for […] period, after which membrane ionic currents, mediated by nAChR activation, were recorded, filtered at 1 kHz, and stored in a PC for subsequent analysis with the pCLAMP 6.04 program (Axon Instruments Inc., Foster City, Calif.).
To this end we studied whether this peptide could affect nicotinic currents recorded from cultured muscle cells (myotubes, I28). These cells were kept at −60 mV potential by the patch electrode.

[2] = tested on: nAChRs of rat chromaffin cells; assay: Patch-clamp recording of nicotine-induced currents in cultured rat chromaffin cells; type: cell-based; settings: for depression (reduction) of the response to nicotine: 5 μM physostigmine, 0.1 mM nicotine; for effect on nicotine dose response curve: 1 μM peptide or 0.5 μM physostigmine
Method: Cultures of rat chromaffin cells were prepared according to the Brandt method (Brandt et al., 1976, Giniatullin et al., 1999, Khirough et al., 1997, 1998). 25–35 day old rats were anaesthetized by increasing CO2 levels and then their adrenal glands were removed. The medullary part was separated from the cortical portion of the gland in buffer solution (pH 7.2) containing (mM): NaCl 137, KCl 3, Na2HPO4 0.7, HEPES 25, glucose 10 and 350 U ml^−1 of penicillin and streptomycin.
Cells were successively dissociated from fragments of medullary tissue at 37° C. over about 60 min, by passing them through a Pasteur pipette at 15 min intervals, and by enzymatic treatment with collagenase A and DNAse I (0.5 U ml^−1 and 10 μgml^−1). The cell containing suspension was then centrifuged at 700 rpm for 5 min and washed twice in HEPES buffered medium. The cells, after re-suspension in DMEM culture medium (Dulbecco's modified Eagle's medium) with addition of 10% FCS (calf fetal serum), were plated on poly-lysine (5 mg/ml)-pretreated Petri dishes and cultured at 37° C. for 1–2 days in 5% CO2 containing atmosphere.
as §1
nAChR agonists were administered to single cells by a pressure system from a micropipette containing a relatively concentrated solution and placed at […] distance from the recorded cell. […] This method allows very rapid administration of a chemical substance with a few ms latency to observe a cell response. For application of antagonists, test compounds and control solution we used a rapid superfusion system (Bio-logic, France) consisting of an array of glass capillary tubes (0.8 mm o.d.) which, through rapid rotation, generate solution flow onto the treated cell. In this case the exchange time between two solutions is about 50 ms.

nAChRs = settings: Giniatullin et al.; cited from earlier work
[3] = 1 μM peptide, nicotine 0.1 mM, 20 ms pulse

T1 sequence (P04756 21-457): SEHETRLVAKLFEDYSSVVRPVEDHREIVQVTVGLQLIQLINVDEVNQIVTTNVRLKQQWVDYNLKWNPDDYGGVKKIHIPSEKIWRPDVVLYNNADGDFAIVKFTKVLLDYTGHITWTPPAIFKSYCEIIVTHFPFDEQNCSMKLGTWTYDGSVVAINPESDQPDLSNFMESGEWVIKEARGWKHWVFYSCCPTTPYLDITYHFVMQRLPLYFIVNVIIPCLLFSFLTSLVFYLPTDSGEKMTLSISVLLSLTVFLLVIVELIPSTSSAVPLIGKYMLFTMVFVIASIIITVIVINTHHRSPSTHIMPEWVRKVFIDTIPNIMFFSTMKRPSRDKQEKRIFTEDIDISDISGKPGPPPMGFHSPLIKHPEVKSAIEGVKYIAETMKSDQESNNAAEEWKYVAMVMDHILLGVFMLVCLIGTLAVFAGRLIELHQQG
T1 sequence (P09690 24-501): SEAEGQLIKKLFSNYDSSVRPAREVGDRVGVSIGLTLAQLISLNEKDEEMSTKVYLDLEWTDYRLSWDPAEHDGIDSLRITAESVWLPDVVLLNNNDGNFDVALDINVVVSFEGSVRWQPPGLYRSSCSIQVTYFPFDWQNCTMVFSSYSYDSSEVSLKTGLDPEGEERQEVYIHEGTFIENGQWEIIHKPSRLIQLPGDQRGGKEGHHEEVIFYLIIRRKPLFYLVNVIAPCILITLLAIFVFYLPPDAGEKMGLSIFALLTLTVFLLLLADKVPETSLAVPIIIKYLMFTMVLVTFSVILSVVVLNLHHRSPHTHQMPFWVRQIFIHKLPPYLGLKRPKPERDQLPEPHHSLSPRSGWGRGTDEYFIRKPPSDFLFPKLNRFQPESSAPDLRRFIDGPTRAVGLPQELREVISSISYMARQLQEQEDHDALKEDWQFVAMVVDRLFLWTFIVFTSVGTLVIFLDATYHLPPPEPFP
T1 sequence (P02716 25-520): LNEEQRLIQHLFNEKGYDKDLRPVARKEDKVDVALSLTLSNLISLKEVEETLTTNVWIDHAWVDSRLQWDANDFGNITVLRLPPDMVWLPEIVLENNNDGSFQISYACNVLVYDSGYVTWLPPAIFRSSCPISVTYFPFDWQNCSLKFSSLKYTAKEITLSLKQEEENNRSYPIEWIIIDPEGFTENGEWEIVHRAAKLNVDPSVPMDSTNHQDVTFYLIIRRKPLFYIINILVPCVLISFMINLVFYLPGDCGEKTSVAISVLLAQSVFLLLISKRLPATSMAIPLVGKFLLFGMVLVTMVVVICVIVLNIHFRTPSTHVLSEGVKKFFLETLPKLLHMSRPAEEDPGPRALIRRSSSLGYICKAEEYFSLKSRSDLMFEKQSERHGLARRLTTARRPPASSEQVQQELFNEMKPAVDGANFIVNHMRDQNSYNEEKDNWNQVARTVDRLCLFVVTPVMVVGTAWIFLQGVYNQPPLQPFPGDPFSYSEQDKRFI
T1 sequence (P04760 23-519 partner): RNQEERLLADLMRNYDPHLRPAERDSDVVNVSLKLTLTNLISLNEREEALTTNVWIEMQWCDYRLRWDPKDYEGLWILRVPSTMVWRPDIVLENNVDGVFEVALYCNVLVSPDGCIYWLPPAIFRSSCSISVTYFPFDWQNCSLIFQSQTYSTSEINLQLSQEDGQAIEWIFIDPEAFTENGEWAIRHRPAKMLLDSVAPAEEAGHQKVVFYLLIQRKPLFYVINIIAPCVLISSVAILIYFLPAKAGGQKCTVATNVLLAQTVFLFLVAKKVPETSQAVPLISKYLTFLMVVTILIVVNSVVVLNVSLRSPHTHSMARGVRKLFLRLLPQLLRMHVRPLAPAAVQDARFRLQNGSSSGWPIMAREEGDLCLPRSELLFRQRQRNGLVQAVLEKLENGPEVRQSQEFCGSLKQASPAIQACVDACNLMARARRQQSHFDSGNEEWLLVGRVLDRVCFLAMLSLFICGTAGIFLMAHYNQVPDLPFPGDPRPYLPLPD

CN1CCCC1c1cccnc1 (stereo not drawn) [Nicotine, nicotine, reference compound]
pEC50 [1]: 4.00

CNC(=O)Oc1ccc2c(c1)[C@]1(C)CCN(C)[C@@H]1N2C [physostigmine, reference compound]
depression (reduction) of the response to nicotine ([2]; 20 ms): 48±5%
depression (reduction) of the response to nicotine ([2]; 20 ms, listed as phystigmine): 77±1%

SCNTAT [CGRP 1-6]
potentiation of nicotine current at threshold ([2]; 0.1 μM peptide, nicotine 20 ms, 0.1 mM): 105±7%
nicotine currents (fraction of control) on concurrent application of CGRP 1-6 and CGRP 1-7 ([2]; 1 μM concentration of both): 99±4%
application time after which enhancement is observed ([2]; 1 μM peptide): ≤ 5 s
wash time for reversal of enhancement ([2]; 1 μM peptide): about 1 min
effect on nicotine dose response curve [2]: shifted to the left in a parallel fashion without modification of the maximum response
effect on maximal currents (saturating nicotine pulse) ([2]; 1 μM peptide, 200 ms nicotine pulse): absent; also recorded: not modified
enhancement of nicotine induced currents [2, 3]: 31% and 31±7% and 21±4%
maximum value of potentiation of nicotine current ([2]; 50 μM peptide, nicotine 20 ms, 0.1 mM): 156±6%
enhancement with combined application of CGRP 1-6 and physostigmine ([2]; CGRP 1-6 1 μM + physostigmine 0.5 μM): 37±6%
washout time for current to return to the initial value ([2]; FIG. 3C): 45 to 60 s
enhancement with cytisine as agonist ([2]; cytisine 20 ms, 0.1 mM): enhancing effect was exerted also when nAChRs were activated by cytisine
CGRP 1-6 enhancing action threshold value ([2]; nicotine 0.1 mM, 20 ms, 0.05–100 μM tested): 0.1 µM
nicotine currents as % of the control with physostigmine plus CGRP 1-6 ([2]; physostigmine 5 μM + CGRP 1-6 1 μM): 79±1%
direct action in the absence of agonist ([2]; resting membrane conductance, baseline current): not associated with any direct action
dependence of enhancing action on membrane potential ([2]; −40, −70 and −100 mV): independent from the membrane potential
effect on muscle-type nicotinic receptor responses (in words) [1]: did not modify the muscle-type nicotinic receptor responses
amplitude of nicotine responses as % of the controls ([1]; 1 μM CGRP 1-6 pre-applied for 2 minutes, nicotine 100 μM, −60 mV): 101±2%

SCNTATA [CGRP 1-7A, Cys7 replaced with Ala]
wash time for reversal of enhancement ([2]; 1 μM peptide): about 1 min
effect on nicotine dose response curve [2]: significantly shifted to left without increase in the maximum response
enhancement of nicotine induced currents [2, 3]: 17±4%
enhancement of nicotine induced currents ([2]; 1 μM peptide, nicotine 0.1 mM, 20 ms pulse, listed as 1-7A): 18%
enhancement of nicotine induced currents ([2]; 1 μM peptide, nicotine 0.1 mM, 20 ms pulse, listed as CGRP 1-7 A): about 18%

SCNTATC (cysteine pairing not given here) [CGRP 1-7, reference compound]
inhibition of nicotine currents ([2]; 1 μM peptide): 42%
action on nAChRs reported earlier (in words) (nAChRs): rapidly developing, competitive antagonism readily reversible on wash

Ser-Cys-Asn-Thr (SCNT; listed as Homo sapiens) [CGRP 1-4]
enhancement of nicotine induced currents [2, 3]: 8±1%
action of fragment on nicotinic currents (in words) ([2]; FIG. 5B): modest enhancing effect

Ser-Cys-Asn-Thr-Ala (SCNTA; listed as Homo sapiens) [CGRP 1-5]
enhancement of nicotine induced currents ([2]; 10 μM peptide): 26±4%
